Source: article PMC5320518, “Novel Liver-targeted conjugates of Glycogen Phosphorylase Inhibitor PSN-357 for the Treatment of Diabetes: Design, Synthesis, Pharmacokinetic and Pharmacological Evaluations” (Scientific Reports, 2017)
Like-named read-outs stand apart in the source and are kept apart here.

Experiments:
[1] = target: T1, rabbit muscle GPa (RMGPa) (Oryctolagus cuniculus, UniProt P00489); assay: RMGPa inhibition assay (phosphate release from glucose-1-phosphate); format: biochemical; conditions: mean ± S.D. of three determinations; NI means no inhibition
T1 sequence (P00489 2-843 limits assumed): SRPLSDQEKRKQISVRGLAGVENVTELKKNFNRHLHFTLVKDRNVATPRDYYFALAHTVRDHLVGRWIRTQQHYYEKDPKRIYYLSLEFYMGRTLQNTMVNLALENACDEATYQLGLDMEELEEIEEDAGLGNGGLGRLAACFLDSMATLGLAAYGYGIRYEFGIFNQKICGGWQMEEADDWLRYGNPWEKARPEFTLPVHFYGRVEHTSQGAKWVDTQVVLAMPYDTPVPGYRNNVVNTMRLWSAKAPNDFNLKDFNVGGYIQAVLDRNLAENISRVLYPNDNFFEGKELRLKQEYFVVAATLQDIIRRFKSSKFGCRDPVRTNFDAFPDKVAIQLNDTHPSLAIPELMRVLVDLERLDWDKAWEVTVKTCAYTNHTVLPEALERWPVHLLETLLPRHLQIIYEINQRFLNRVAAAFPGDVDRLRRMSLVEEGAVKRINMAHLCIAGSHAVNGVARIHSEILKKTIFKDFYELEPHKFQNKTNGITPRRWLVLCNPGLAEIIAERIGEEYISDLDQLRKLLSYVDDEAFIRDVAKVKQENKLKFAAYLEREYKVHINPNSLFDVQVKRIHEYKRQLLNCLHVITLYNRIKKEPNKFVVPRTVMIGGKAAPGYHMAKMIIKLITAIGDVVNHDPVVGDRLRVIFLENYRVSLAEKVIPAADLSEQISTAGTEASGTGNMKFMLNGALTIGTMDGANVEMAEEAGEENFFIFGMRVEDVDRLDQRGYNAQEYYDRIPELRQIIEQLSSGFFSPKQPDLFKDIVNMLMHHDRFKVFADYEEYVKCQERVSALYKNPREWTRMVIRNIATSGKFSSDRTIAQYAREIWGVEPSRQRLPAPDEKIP
Method: All the compounds were evaluated for their inhibitory activity against rabbit muscle GPa (RMGPa). The activity of RMGPa was measured through detecting the release of phosphate from glucose-1-phosphate in the direction of glycogen synthesis. CP-91149, a well-known allosteric GP inhibitor, which shares the same binding site with PSN-357, was used as the positive control and the results are summarized in Table 1[21]. […] This remarkable loss of activity was probably due to the direct steric interference by such bulky substituent of cholic acid group. […] The results is consistent with the SARs of PSN-357 that the hydroxyl of piperidine is not an essential group for the GP inhibitory activity that could be modified slightly.
The inhibitory activity of the test compounds against rabbit muscle glycogen phosphorylase a (GPa) was monitored using microplate reader (BIO-RAD) based on the published method. In brief, GPa activity was measured in the direction of glycogen synthesis by the release of phosphate from glucose-1-phosphate. Each test compound was dissolved in DMSO and diluted at different concentrations for IC50 determination. The enzyme was added into 100 μL of buffer containing 50 mM Hepes (pH = 7.2), 100 mM KCl, 2.5 mM MgCl2, 0.5 mM glucose-1-phosphate, 1 mg/mL glycogen and the test compound in 96-well microplates (Costar). After the addition of 150 μL of 1 M HCl containing 10 mg/mL ammonium molybdate and 0.38 mg/mL malachite green, reactions were run at 22 °C for 25 min, and then the phosphate absorbance was measured at 655 nm. The IC50 values were estimated by fitting the inhibition data to a dose-dependent curve using a logistic derivative equation.

isolated rat hepatocytes = assay: Glycogenolysis inhibition in isolated rat hepatocytes; format: cell-based; conditions: mean ± S.D. of three, NI means no inhibition
Excerpt: (§1) To evaluate the effects of all compounds in cells, the glycogenolysis assays were established in both rat and human liver cells based on the published method. […] The inhibitory activities of the derivatives of PSN-357 (e.g. 25–28) were also explored. It is not surprising that the derivatives still retained micromolar inhibitory activities. Introduction of steric bulks to the hydroxyl group (e.g. 33, 40, 42, 48) led to a complete loss of activity. Data analysis indicated no clear SAR for the substitutents in the cell-based assays.
(§2) The inhibition of hepatic glycogenolysis was monitored by the measurement of liver glycogen, which was done quantitatively by the anthrone reagent (Sigma) colorimetric method based on the published method. Isolated rat hepatocytes or HepG2 cells (Sigma) were treated with the test compound or DMSO solvent (final concentration, 0.10%), followed by 60-min incubation with 0.3 nM glucagon (GGN). Assays were terminated by centrifugation, and cells were digested with 30% KOH followed by glycogen determination. The IC50 values were estimated by fitting the inhibition data to a dose-dependent curve using a logistic derivative equation.

HepG2 cells = assay: Glycogenolysis inhibition in HepG2 cells; format: cell-based, human; conditions: HepG2 cells, 60-min incubation with 0.3 nM glucagon, mean ± S.D. of three, NI means no inhibition, read-out: IC50 (glycogenolysis inhibition, HepG2 cells)
Excerpt: as §1, §2

[2] = Stability in simulated gastric fluid (SGF); format: in vitro ADME; conditions: SGF pH 1.21 with pepsin, 2 μM, 37 °C; for stability in SGF (in words): 24 h incubation
Method: (§3) All the conjugates were tested for their chemical and metabolic stability in multiple assays, including simulated gastric fluid (SGF), simulated interstinal fluid (SIF), mouse plasma, and mouse liver microsome (MLM).
(§4) For the stability in SGF (Fig. 8) and SIF (Fig. 9), the conjugates could be divided into three groups: (1) stable conjugates 2, 6 and 9. […] The two conjugates were degraded within 6 h and 1 h in SGF and SIF, respectively, with alomost no conjugates at the end of the 24 h incubation in both SGF and SIF; (3) complicated conjugates 3, 4, 5 and 8.
(§5) The simulated gastrointestinal fluids were prepared according to USP specifications. For SGF, NaCl (0.12 g) and pepsin (0.18 g, from porcine stomach mucosa) was dissolved in HCl (0.42 mL) and sufficient H2O was added to make 60 mL. The pH of the test solution was determined as 1.21 by pH meter. For the SIF, KH2PO4 (0.408 g) and pancreatin (0.6 g, from porcine pancreas) was dissolved in H2O (60 mL). The pH of the test solution was determined as 6.79 by pH meter. Each test compound was dissolved in DMSO and diluted to a final concentration of 2 μM in SIF and SGF. The final concentrations of DMSO and CH3CN in the incubation mixture were 0.2% and 0.45%. Aliquots of these solutions were pipetted into glass tubes, and placed in a 37 °C shaking water bath. Test samples at corresponding time point (1, 2, 6, 24 h) were removed at the end of incubation time and immediately mixed with 800 μL of cold acetonitrile containing 500 ng/mL tolbutamide (internal standard). Samples were subjected to centrifuge at 4000 rpm, 4 °C for 20 min. Aliquots 60 μL of supernatant was combined with 120 μL water for LC-MS/MS analysis.

[3] = Stability in simulated intestinal fluid (SIF); format: in vitro ADME; conditions: for time within which degraded in SIF: SIF pH 6.79 with pancreatin, 2 μM, 37 °C
Method: as §3, §4, §5

[4] = Stability in mouse liver microsomes (MLM); format: in vitro ADME; conditions: for CLint scaled at 10 μM / half-life at 10 μM / microsomal CLint at 10 μM: C57BL/6, pH 7.4, n = 3
Method: Additionally, the compounds’ stability in microsome were evaluated by measuring the rate of compounds consumpation in MLM and the results are shown in Table 3.
The microsomal pellet was suspended in potassium phosphate buffer (100 mM, pH 7.4), 10 μM test compound or positive control (diclofenac) was added. Liver microsomes from C57BL/6 mice (BD Gentest) were pooled. The mixture of microsome solution and compound was incubated at 37 °C for about 10 min in the presence of a NADPH-regenerating system, consisting of 0.02 M DL-isocitric acid (trisodium salt), 0.1 mg/mL isocitrate dehydrogenase and 1 mM NADPH. The addition of ice-cold CH3CN (including 100 ng/mL tolbutamide as internal standard) terminated the reaction. The mixture was vortexed for approx (30 s), centrifuged (20 min, 4000 rpm) and the supernatant was collected and analysed by LC-MS/MS method.

[5] = Stability in mouse plasma; format: in vitro ADME; conditions: 2 μM, 37 °C, 120-min test
Method: Frozen plasma from male C57 BL/6 mice was incubated for 5 min at 37 °C before the addition of the test compound. Then prepared 2 μM incubation sample, and aliquots of the incubation mixtures (100 μL) were taken at predetermined time points (10, 30, 60, 120 min) at 37 °C. After incubation, the mixtures was added 400 μL of 50% ACN/50% MeOH containing internal standard (IS, 200 ng/mL Tolbutamide and 20 ng/mL Buspirone) to each sample tube and then centrifuged at 13000 rpm for 8 min. Blank incubations in the absence of the test compound were also performed. The analyses of test compounds were performed by LC-MS/MS analysis.

skeletal muscle function = system: skeletal muscle function; set-up: method as in PMID 16046314, PMID 16731853; conditions: prolonged (60 min) muscle contraction, perfused rat hindlimb model; cited from earlier work
[6] = Rattus norvegicus, Hepatocyte, 1 h, read-out: IC50 (glycogenolysis inhibition, rat hepatocytes), isolated rat hepatocytes, 60-min incubation with 0.3 nM glucagon

| Molecule | IC50 [1] [µM] | IC50 (isolated rat hepatocytes; [6]) [µM] | IC50 (HepG2 cells; Homo sapiens, HepG2, 1 h) [µM] | stability in SGF (in words) [2] | fraction degraded during 24 h incubation in SIF [3] | CLint scaled at 10 μM [4] [mL/min/kg] | half-life at 10 μM [4] [min] | microsomal CLint at 10 μM [4] [µL/min/mg] | melting point [°C] | IC50 (RMGPa inhibition) [1] | time within which degraded in SIF [3] [h] | degradation in mouse plasma [5] | time within which degraded in SGF [2] [h] | metabolic stability in MLM (in words) [4] | IC50 (isolated rat hepatocytes; read-out: IC50 (glycogenolysis inhibition, rat hepatocytes), isolated rat hepatocytes, 60-min incubation with 0.3 nM glucagon) [µM] | IC50 (HepG2 cells) [µM] | greater muscle fatigue than the control group (skeletal muscle function) [%] |
| --- | --- | --- | --- | --- | --- | --- | --- | --- | --- | --- | --- | --- | --- | --- | --- | --- | --- |
| C[C@H](CCC(=O)N(C)CC(=O)OC1CCN(C(=O)[C@H](Cc2ccc(F)cc2)NC(=O)c2cc3cc(Cl)ncc3[nH]2)CC1)[C@H]1CC[C@H]2[C@@H]3[C@H](O)C[C@@H]4C[C@H](O)CC[C@]4(C)[C@H]3C[C@H](O)[C@]12C [Conjugate 2] | 26 ± 13.9 | 845 ± 132 | 172 ± 18.2 | stable | no more than 20% | 220 | 24.9 | 55.6 | 183 to 185 | – | – | – | – | – | – | – | – |
| CC(C)[C@H](NC(=O)CC[C@@H](C)[C@H]1CC[C@H]2[C@@H]3[C@H](O)C[C@@H]4C[C@H](O)CC[C@]4(C)[C@H]3C[C@H](O)[C@]12C)C(=O)OC1CCN(C(=O)[C@H](Cc2ccc(F)cc2)NC(=O)c2cc3cc(Cl)ncc3[nH]2)CC1 [Conjugate 4] | – | – | – | relatively stable | – | 150 | 36.5 | 38 | 185 to 187 | no activity | ≤ 1 | approximately 4% | – | – | – | – | – |
| C[C@H](CCC(=O)N[C@@H](CO)C(=O)OC1CCN(C(=O)[C@H](Cc2ccc(F)cc2)NC(=O)c2cc3cc(Cl)ncc3[nH]2)CC1)[C@H]1CC[C@H]2[C@@H]3[C@H](O)C[C@@H]4C[C@H](O)CC[C@]4(C)[C@H]3C[C@H](O)[C@]12C [Conjugate 5] | 81.9 ± 14.4 | – | – | relatively stable | – | 135 | 40.8 | 34 | 175 to 177 | – | ≤ 1 | – | – | – | – | – | – |
| CC(NC(=O)C(NC(=O)CCC(C)C1CCC2C3C(O)CC4CC(O)CCC4(C)C3CC(O)C12C)C(C)C)C(=O)OC1CCN(C(=O)C(Cc2ccc(F)cc2)NC(=O)c2cc3cc(Cl)ncc3[nH]2)CC1 (stereo not drawn) [Conjugate 7] | 6.07 ± 0.27 | 42.1 ± 10.9 | 11.7 ± 3.8 | – | – | 1180 | 4.7 | 297 | – | – | ≤ 1 | – | ≤ 6 | – | – | – | – |
| CC(CCC(=O)NC(Cc1ccccc1)C(=O)NC(CCCCN)C(=O)OC1CCN(C(=O)C(Cc2ccc(F)cc2)NC(=O)c2cc3cc(Cl)ncc3[nH]2)CC1)C1CCC2C3C(O)CC4CC(O)CCC4(C)C3CC(O)C12C (stereo not drawn) [Conjugate 8] | 10.7 ± 5.6 | 64.5 ± 4.4 | 36.8 ± 4.14 | relatively stable | – | 64.2 | 85.6 | 16.2 | – | – | ≤ 1 | – | – | considerable metabolic stability | – | – | – |
| C[C@H](CCC(=O)NCCNC(=O)c1ccc(/N=N/c2ccccc2CCC(=O)OC2CCN(C(=O)[C@H](Cc3ccc(F)cc3)NC(=O)c3cc4cc(Cl)ncc4[nH]3)CC2)cc1)[C@H]1CC[C@H]2[C@@H]3[C@H](O)C[C@@H]4C[C@H](O)CC[C@]4(C)[C@H]3C[C@H](O)[C@]12C [Conjugate 9] | 51.7 ± 4.1 | 12.3 | 6.4 | stable | no more than 20% | 60.2 | 91.2 | 15.2 | 172 to 174 | – | – | – | – | considerable metabolic stability | 12.3 ± 3.93 | 6.41 ± 1.25 | – |
| CP316819 | – | – | – | – | – | – | – | – | – | – | – | – | – | – | – | – | 35 |
